Assay results: patent US20230365592A1 (Agios Pharmaceuticals, Inc., priority 2022, published 2023)

Each compound was assayed against T1, human PAH with the R408W mutation (Homo sapiens, UniProt P00439, R408W) (assay: Cell Based Phenylalanine Flux Assay). Settings: A375 cells expressing human PAH R408W; 24 hrs compound incubation; 13C-Tyrosine by LC-MS; average where tested multiple times; read-out: AC50.
T1 construct: expressed in transfected cells
T1 sequence (P00439 1-452 R408W): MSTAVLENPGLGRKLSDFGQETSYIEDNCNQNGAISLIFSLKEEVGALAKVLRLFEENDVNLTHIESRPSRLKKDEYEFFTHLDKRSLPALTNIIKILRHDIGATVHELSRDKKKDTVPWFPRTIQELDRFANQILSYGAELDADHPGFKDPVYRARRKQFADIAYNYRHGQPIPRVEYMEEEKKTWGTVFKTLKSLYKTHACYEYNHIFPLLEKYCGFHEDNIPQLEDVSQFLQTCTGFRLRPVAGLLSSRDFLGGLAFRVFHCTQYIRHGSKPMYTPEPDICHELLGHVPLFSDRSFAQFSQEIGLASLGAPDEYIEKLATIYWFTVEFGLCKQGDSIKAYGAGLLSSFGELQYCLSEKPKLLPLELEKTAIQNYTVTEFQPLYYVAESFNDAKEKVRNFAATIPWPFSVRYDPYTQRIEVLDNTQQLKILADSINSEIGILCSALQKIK
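Further: after compound treatment, cells received sepiapterin plus isotope-labelled Phenylalanine for 4 hours, then labelled Tyrosine in the medium was quantified, 10-point 2-fold dilution series run in duplicate.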

| SMILES | AC50 [nM] |
| --- | --- |
| CC(C)(O)c1ncc(C(=O)N2CCc3[nH]cnc3[C@H]2c2cc3c(F)cccn3n2)o1 [Example 2382, (S)-(4-(4-fluoropyrazolo[1,5-a]pyridin-2-yl)-6,7-dihydro-1H-imidazo[4,5-c]pyridin-5(4H)-yl)(2-(2-hydroxypropan-2-yl)oxazol-5-yl)methanone] | 1000 to 5000 |
| Cc1ccn2nc([C@@H]3c4nc[nH]c4CCN3C(=O)c3nnc(-c4ccccn4)o3)cc2c1 [Example 2384, (S)-(4-(5-methylpyrazolo[1,5-a]pyridin-2-yl)-6,7-dihydro-1H-imidazo[4,5-c]pyridin-5(4H)-yl)(5-(pyridin-2-yl)-1,3,4-oxadiazol-2-yl)methanone] | 1000 to 5000 |
| Cc1ccn2nc([C@H]3c4nc[nH]c4CCN3C(=O)c3nnc(-c4ccccn4)o3)cc2c1 [Example 2385, (R)-(4-(5-methylpyrazolo[1,5-a]pyridin-2-yl)-6,7-dihydro-1H-imidazo[4,5-c]pyridin-5(4H)-yl)(5-(pyridin-2-yl)-1,3,4-oxadiazol-2-yl)methanone] | > 5000 |
| O=C(c1ccnn1C1CC1)N1CCc2[nH]cnc2[C@H]1c1cc2ccccn2n1 [Example 2386, (S)-(1-cyclopropyl-1H-pyrazol-5-yl)(4-(pyrazolo[1,5-a]pyridin-2-yl)-6,7-dihydro-1H-imidazo[4,5-c]pyridin-5(4H)-yl)methanone] | 1000 to 5000 |
| O=C(c1ccnn1-c1ccccn1)N1CCc2[nH]cnc2[C@H]1c1cc2c(F)cccn2n1 [Example 2388, (S)-(4-(4-fluoropyrazolo[1,5-a]pyridin-2-yl)-6,7-dihydro-1H-imidazo[4,5-c]pyridin-5(4H)-yl)(1-(pyridin-2-yl)-1H-pyrazol-5-yl)methanone] | 1000 to 5000 |
| Cc1cc(C(=O)N2CCc3[nH]cnc3[C@H]2c2cc3c(F)cccn3n2)n(C)n1 [Example 2390, (S)-(1,3-dimethyl-1H-pyrazol-5-yl)(4-(4-fluoropyrazolo[1,5-a]pyridin-2-yl)-6,7-dihydro-1H-imidazo[4,5-c]pyridin-5(4H)-yl)methanone] | 1000 to 5000 |
| COc1cccn2nc([C@@H]3c4nc[nH]c4CCN3C(=O)c3nc(C)nn3C)cc12 [Example 2393, (S)-(1,3-dimethyl-1H-1,2,4-triazol-5-yl)(4-(4-methoxypyrazolo[1,5-a]pyridin-2-yl)-6,7-dihydro-1H-imidazo[4,5-c]pyridin-5(4H)-yl)methanone] | 1000 to 5000 |
| Cc1cccc2cc([C@H]3c4nc[nH]c4CCN3C(=O)c3nnc(-c4cn(C)cn4)o3)nn12 [Example 2394, (R)-(5-(1-methyl-1H-imidazol-4-yl)-1,3,4-oxadiazol-2-yl)(4-(7-methylpyrazolo[1,5-a]pyridin-2-yl)-6,7-dihydro-1H-imidazo[4,5-c]pyridin-5(4H)-yl)methanone] | > 5000 |
| Cc1cccc2cc([C@@H]3c4nc[nH]c4CCN3C(=O)c3nnc(-c4cn(C)cn4)o3)nn12 [Example 2395, (S)-(5-(1-methyl-1H-imidazol-4-yl)-1,3,4-oxadiazol-2-yl)(4-(7-methylpyrazolo[1,5-a]pyridin-2-yl)-6,7-dihydro-1H-imidazo[4,5-c]pyridin-5(4H)-yl)methanone] | 1000 to 5000 |
| Cn1nc(C(F)F)nc1C(=O)N1CCc2[nH]cnc2[C@H]1c1cc2cccc(Cl)n2n1 [Example 2396, (S)-(4-(7-chloropyrazolo[1,5-a]pyridin-2-yl)-6,7-dihydro-1H-imidazo[4,5-c]pyridin-5(4H)-yl)(3-(difluoromethyl)-1-methyl-1H-1,2,4-triazol-5-yl)methanone] | 1000 to 5000 |
| Cn1nc(C(F)(F)F)nc1C(=O)N1CCc2[nH]cnc2[C@H]1c1cc2c(F)cccn2n1 [Example 2398, (S)-(4-(4-fluoropyrazolo[1,5-a]pyridin-2-yl)-6,7-dihydro-1H-imidazo[4,5-c]pyridin-5(4H)-yl)(1-methyl-3-(trifluoromethyl)-1H-1,2,4-triazol-5-yl)methanone] | 1000 to 5000 |
| Cn1nc(C(F)(F)F)nc1C(=O)N1CCc2[nH]cnc2[C@@H]1c1cc2c(F)cccn2n1 [Example 2399, (R)-(4-(4-fluoropyrazolo[1,5-a]pyridin-2-yl)-6,7-dihydro-1H-imidazo[4,5-c]pyridin-5(4H)-yl)(1-methyl-3-(trifluoromethyl)-1H-1,2,4-triazol-5-yl)methanone] | 1000 to 5000 |
| O=C(c1ocnc1C(F)F)N1CCc2[nH]cnc2[C@H]1c1cc2cc(F)ccn2n1 [Example 2400, (S)-(4-(difluoromethyl)oxazol-5-yl)(4-(5-fluoropyrazolo[1,5-a]pyridin-2-yl)-6,7-dihydro-1H-imidazo[4,5-c]pyridin-5(4H)-yl)methanone] | < 500 |
| O=C(c1ocnc1C(F)F)N1CCc2[nH]cnc2[C@@H]1c1cc2cc(F)ccn2n1 [Example 2401, (R)-(4-(difluoromethyl)oxazol-5-yl)(4-(5-fluoropyrazolo[1,5-a]pyridin-2-yl)-6,7-dihydro-1H-imidazo[4,5-c]pyridin-5(4H)-yl)methanone] | 1000 to 5000 |
| Cc1ccc2cc([C@@H]3c4nc[nH]c4CCN3C(=O)c3nc(C(F)F)nn3C)nn2c1 [Example 2403, (S)-(3-(difluoromethyl)-1-methyl-1H-1,2,4-triazol-5-yl)(4-(6-methylpyrazolo[1,5-a]pyridin-2-yl)-6,7-dihydro-1H-imidazo[4,5-c]pyridin-5(4H)-yl)methanone] | 1000 to 5000 |
| O=C(c1nnc(C2CC2)o1)N1CCc2[nH]cnc2[C@@H]1c1cc2ccc(F)cn2n1 [Example 2405, (R)-(5-cyclopropyl-1,3,4-oxadiazol-2-yl)(4-(6-fluoropyrazolo[1,5-a]pyridin-2-yl)-6,7-dihydro-1H-imidazo[4,5-c]pyridin-5(4H)-yl)methanone] | > 5000 |
| CC(C)(O)c1nc(C(F)F)c(C(=O)N2CCc3[nH]cnc3[C@H]2c2cc3cc(C(F)(F)F)ccn3n2)o1 [Example 2406, (S)-(4-(difluoromethyl)-2-(2-hydroxypropan-2-yl)oxazol-5-yl)(4-(5-(trifluoromethyl)pyrazolo[1,5-a]pyridin-2-yl)-6,7-dihydro-1H-imidazo[4,5-c]pyridin-5(4H)-yl)methanone] | < 500 |
| CC(C)(C)c1nnc(C(=O)N2CCc3[nH]cnc3[C@H]2c2cc3cccc(C(F)(F)F)n3n2)o1 [Example 2409, (S)-(5-(tert-butyl)-1,3,4-oxadiazol-2-yl)(4-(7-(trifluoromethyl)pyrazolo[1,5-a]pyridin-2-yl)-6,7-dihydro-1H-imidazo[4,5-c]pyridin-5(4H)-yl)methanone] | 1000 to 5000 |
| Cn1nc(C(F)F)nc1C(=O)N1CCc2[nH]cnc2[C@H]1c1cc2cc(C(F)(F)F)ccn2n1 [Example 2410, (S)-(3-(difluoromethyl)-1-methyl-1H-1,2,4-triazol-5-yl)(4-(5-(trifluoromethyl)pyrazolo[1,5-a]pyridin-2-yl)-6,7-dihydro-1H-imidazo[4,5-c]pyridin-5(4H)-yl)methanone] | 500 to 1000 |
| Cn1nc(C(F)(F)F)nc1C(=O)N1CCc2[nH]cnc2[C@H]1c1cc2cccc(Cl)n2n1 [Example 2412, (S)-(4-(7-chloropyrazolo[1,5-a]pyridin-2-yl)-6,7-dihydro-1H-imidazo[4,5-c]pyridin-5(4H)-yl)(1-methyl-3-(trifluoromethyl)-1H-1,2,4-triazol-5-yl)methanone] | 1000 to 5000 |
| O=C(c1nnc(-c2ccccn2)o1)N1CCc2[nH]cnc2[C@H]1c1cc2ccc(C(F)(F)F)cn2n1 [Example 2414, (S)-(5-(pyridin-2-yl)-1,3,4-oxadiazol-2-yl)(4-(6-(trifluoromethyl)pyrazolo[1,5-a]pyridin-2-yl)-6,7-dihydro-1H-imidazo[4,5-c]pyridin-5(4H)-yl)methanone] | 1000 to 5000 |
| O=C(c1nnc(-c2ccccn2)o1)N1CCc2[nH]cnc2[C@@H]1c1cc2ccc(C(F)(F)F)cn2n1 [Example 2415, (R)-(5-(pyridin-2-yl)-1,3,4-oxadiazol-2-yl)(4-(6-(trifluoromethyl)pyrazolo[1,5-a]pyridin-2-yl)-6,7-dihydro-1H-imidazo[4,5-c]pyridin-5(4H)-yl)methanone] | 1000 to 5000 |
| Cn1cc(-c2nnc(C(=O)N3CCc4[nH]cnc4[C@@H]3c3cc4ccc(C(F)(F)F)cn4n3)o2)cn1 [Example 2417, (R)-(5-(1-methyl-1H-pyrazol-4-yl)-1,3,4-oxadiazol-2-yl)(4-(6-(trifluoromethyl)pyrazolo[1,5-a]pyridin-2-yl)-6,7-dihydro-1H-imidazo[4,5-c]pyridin-5(4H)-yl)methanone] | 1000 to 5000 |
| Cn1nc(C2CC2)nc1C(=O)N1CCc2[nH]cnc2[C@H]1c1cc2cccc(C(F)(F)F)n2n1 [Example 2419, (S)-(3-cyclopropyl-1-methyl-1H-1,2,4-triazol-5-yl)(4-(7-(trifluoromethyl)pyrazolo[1,5-a]pyridin-2-yl)-6,7-dihydro-1H-imidazo[4,5-c]pyridin-5(4H)-yl)methanone] | 1000 to 5000 |
| CC(C)(F)c1nnc(C(=O)N2CCc3[nH]cnc3[C@H]2c2cc3ccc(C(F)(F)F)cn3n2)o1 [Example 2420, (S)-(5-(2-fluoropropan-2-yl)-1,3,4-oxadiazol-2-yl)(4-(6-(trifluoromethyl)pyrazolo[1,5-a]pyridin-2-yl)-6,7-dihydro-1H-imidazo[4,5-c]pyridin-5(4H)-yl)methanone] | 1000 to 5000 |
| CC(C)(F)c1nnc(C(=O)N2CCc3[nH]cnc3[C@@H]2c2cc3ccc(C(F)(F)F)cn3n2)o1 [Example 2421, (R)-(5-(2-fluoropropan-2-yl)-1,3,4-oxadiazol-2-yl)(4-(6-(trifluoromethyl)pyrazolo[1,5-a]pyridin-2-yl)-6,7-dihydro-1H-imidazo[4,5-c]pyridin-5(4H)-yl)methanone] | 1000 to 5000 |
